Source: PubChem BioAssay AID248 (DTP/NCI, 2004)
Inconclusive results and toxic doses are left out. No stated cut-off is given here; in the data, active means T/C of 150% or more; inactive means T/C below 125%.

System: L1210 leukemia ip in BDF1 mice, survival T/C
Assay: NCI In Vivo Anticancer Drug Screen. Data for tumor model L1210 Leukemia (intraperitoneal) in B6D2F1 (BDF1) mice
Conditions: endpoint: mean survival time, higher = longer survival
In short: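 Survival endpoint. Drug-treated group vs vehicle group, expressed as T divided by C. Tumor passaged by transplantation.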

[1] = dose: 100.0 mg/kg/injection, schedule: Q01DX009 (ip), vehicle: Klucel (hydroxypropylcellulose) (HPC)
[2] = dose: 200.0 mg/kg/injection, schedule: Q01DX009 (ip), vehicle: Klucel (hydroxypropylcellulose) (HPC)
[3] = dose: 400.0 mg/kg/injection, schedule: Q01DX009 (ip), vehicle: Klucel (hydroxypropylcellulose) (HPC)
[4] = dose: 100.0 mg/kg/injection, schedule: Q01DX001 (ip), vehicle: Klucel (hydroxypropylcellulose) (HPC)
[5] = dose: 200.0 mg/kg/injection, schedule: Q01DX001 (ip), vehicle: Klucel (hydroxypropylcellulose) (HPC)
[6] = dose: 400.0 mg/kg/injection, schedule: Q01DX001 (ip), vehicle: Klucel (hydroxypropylcellulose) (HPC)
[7] = dose: 100.0 mg/kg/injection, schedule: Q04DX003 (ip), vehicle: saline
[8] = dose: 200.0 mg/kg/injection, schedule: Q04DX003 (ip), vehicle: saline
[9] = dose: 400.0 mg/kg/injection, schedule: Q04DX003 (ip), vehicle: saline
[10] = dose: 100.0 mg/kg/injection, schedule: Q04DX003 (ip), vehicle: Klucel (hydroxypropylcellulose) (HPC)
[11] = dose: 200.0 mg/kg/injection, schedule: Q04DX003 (ip), vehicle: Klucel (hydroxypropylcellulose) (HPC)
[12] = dose: 400.0 mg/kg/injection, schedule: Q04DX003 (ip), vehicle: Klucel (hydroxypropylcellulose) (HPC)

Measured: T/C

CCN(CC)CCCC(C)Nc1nnc2c(=O)n(C)c(=O)n(C)c2n1 (centres undefined)
inactive: dose: 75.0 mg/kg/injection, schedule: Q04DX003 (ip), vehicle: saline 89 % of control | dose: 150.0 mg/kg/injection, schedule: Q04DX003 (ip), vehicle: saline 90 % of control | dose: 300.0 mg/kg/injection, schedule: Q04DX003 (ip), vehicle: saline 87 % of control

CCCCCCCCCCCCCCCCCCn1cnc2c(N)ncnc21
inactive: dose: 12.5 mg/kg/injection, schedule: Q01DX005 (ip), vehicle: other 105 % of control | dose: 25.0 mg/kg/injection, schedule: Q01DX005 (ip), vehicle: other 97 % of control | dose: 50.0 mg/kg/injection, schedule: Q01DX005 (ip), vehicle: other 102 % of control | dose: 100.0 mg/kg/injection, schedule: Q01DX005 (ip), vehicle: other 103 % of control | dose: 200.0 mg/kg/injection, schedule: Q01DX005 (ip), vehicle: other 108 % of control

Cc1ccc([N+](=O)[O-])cc1NC(=O)Nc1cccc(O)c1
inactive: [1] 95 % of control | [2] 86 % of control | [3] 93 % of control

CCC(C)NP(=O)(OC1CC(C)(C)N(O)C(C)(C)C1)OC1CC(C)(C)N(O)C(C)(C)C1 (centres undefined)
inactive: dose: 50.0 mg/kg/injection, schedule: Q01DX001 (ip), vehicle: water 98 % of control | dose: 100.0 mg/kg/injection, schedule: Q01DX001 (ip), vehicle: water 98 % of control | dose: 200.0 mg/kg/injection, schedule: Q01DX001 (ip), vehicle: water 94 % of control

O=C(/C=C/c1c(Cl)cccc1Cl)c1ccc(Cl)cc1
inactive: dose: 100.0 mg/kg/injection, schedule: Q01DX009 (ip), vehicle: saline with Tween-80 98 % of control | dose: 100.0 mg/kg/injection, schedule: Q04DX003 (ip), vehicle: saline with Tween-80 90 % of control | dose: 200.0 mg/kg/injection, schedule: Q01DX009 (ip), vehicle: saline with Tween-80 95 % of control | dose: 200.0 mg/kg/injection, schedule: Q04DX003 (ip), vehicle: saline with Tween-80 90 % of control | dose: 400.0 mg/kg/injection, schedule: Q01DX009 (ip), vehicle: saline with Tween-80 90 % of control | dose: 400.0 mg/kg/injection, schedule: Q04DX003 (ip), vehicle: saline with Tween-80 91 % of control

OC(c1ccccc1)(c1ccccc1)c1cccnc1
inactive: dose: 75.0 mg/kg/injection, schedule: Q04DX002 (ip), vehicle: saline 105 % of control | dose: 150.0 mg/kg/injection, schedule: Q04DX002 (ip), vehicle: saline 93 % of control

CC[N+](CC)(CC)CCCC[P+](CC)(CC)CC
inactive: dose: 12.0 mg/kg/injection, schedule: Q04DX003 (ip), vehicle: other 95 % of control | dose: 25.0 mg/kg/injection, schedule: Q04DX003 (ip), vehicle: other 90 % of control | dose: 50.0 mg/kg/injection, schedule: Q04DX003 (ip), vehicle: other 93 % of control

COc1ccc2c(c1O)C1(CCN(C)C)CC(=O)CCC1C=C2 (centres undefined)
inactive: dose: 75.0 mg/kg/injection, schedule: Q01DX001 (ip), vehicle: saline 96 % of control | dose: 150.0 mg/kg/injection, schedule: Q01DX001 (ip), vehicle: saline 100 % of control | dose: 300.0 mg/kg/injection, schedule: Q01DX001 (ip), vehicle: saline 89 % of control

S=c1[nH]c2ccccc2s1.[Pb]
inactive: [4] 94 % of control | [5] 100 % of control | [6] 100 % of control

c1ccc(CN2CCN(CC3CC3)CC2)cc1
inactive: dose: 12.5 mg/kg/injection, schedule: Q04DX003 (ip), vehicle: Klucel (hydroxypropylcellulose) (HPC) 103 % of control | dose: 25.0 mg/kg/injection, schedule: Q04DX003 (ip), vehicle: Klucel (hydroxypropylcellulose) (HPC) 98 % of control | dose: 50.0 mg/kg/injection, schedule: Q04DX003 (ip), vehicle: Klucel (hydroxypropylcellulose) (HPC) 110 % of control

COc1cc(=O)oc(/C=C/C=C/C=C/C(C)=C\C2(C)OC(C)C(C)(O)C2O)c1C (centres undefined)
inactive: dose: 12.5 mg/kg/injection, schedule: Q01DX009 (ip), vehicle: other 93 % of control | dose: 25.0 mg/kg/injection, schedule: Q01DX009 (ip), vehicle: other 100 % of control | dose: 50.0 mg/kg/injection, schedule: Q01DX009 (ip), vehicle: other 93 % of control

O=S1(=O)C=Cc2ccccc21
inactive: dose: 100.0 mg/kg/injection, schedule: Q01DX001 (ip), vehicle: saline 106 % of control | dose: 100.0 mg/kg/injection, schedule: Q01DX009 (ip), vehicle: acetone 92 % of control | [7] 95 % of control | dose: 200.0 mg/kg/injection, schedule: Q01DX001 (ip), vehicle: saline 106 % of control | dose: 200.0 mg/kg/injection, schedule: Q01DX009 (ip), vehicle: acetone 91 % of control | [8] 97 % of control | dose: 400.0 mg/kg/injection, schedule: Q01DX001 (ip), vehicle: saline 100 % of control | dose: 400.0 mg/kg/injection, schedule: Q01DX009 (ip), vehicle: acetone 97 % of control | [9] 88 % of control

O=C(O)c1ccc(F)c(F)c1F
inactive: dose: 100.0 mg/kg/injection, schedule: Q04DX002 (ip), vehicle: other 121 % of control | dose: 200.0 mg/kg/injection, schedule: Q04DX002 (ip), vehicle: other 115 % of control

N#Cc1sc2ccccc2c1CBr
inactive: dose: 6.25 mg/kg/injection, schedule: Q01DX009 (ip), vehicle: Klucel (hydroxypropylcellulose) (HPC) 93 % of control | dose: 12.5 mg/kg/injection, schedule: Q01DX009 (ip), vehicle: Klucel (hydroxypropylcellulose) (HPC) 94 % of control | dose: 25.0 mg/kg/injection, schedule: Q01DX009 (ip), vehicle: Klucel (hydroxypropylcellulose) (HPC) 100 % of control | [10] 100 % of control | [11] 94 % of control

CC1(C)CC1(F)Cl (centres undefined)
inactive: dose: 100.0 mg/kg/injection, schedule: Q01DX001 (ip), vehicle: carboxymethylcellulose (CMC) 103 % of control | dose: 200.0 mg/kg/injection, schedule: Q01DX001 (ip), vehicle: carboxymethylcellulose (CMC) 97 % of control | dose: 400.0 mg/kg/injection, schedule: Q01DX001 (ip), vehicle: carboxymethylcellulose (CMC) 101 % of control

OC(CNc1ccccc1)CN1CCOCC1 (centres undefined)
inactive: dose: 100.0 mg/kg/injection, schedule: Q01DX001 (ip), vehicle: other 101 % of control | [7] 100 % of control | dose: 200.0 mg/kg/injection, schedule: Q01DX001 (ip), vehicle: other 96 % of control | [8] 94 % of control | dose: 400.0 mg/kg/injection, schedule: Q01DX001 (ip), vehicle: other 105 % of control | [9] 94 % of control

O=C(NCC(O)CCl)c1ccc([N+](=O)[O-])cc1 (centres undefined)
inactive: [4] 95 % of control | [10] 97 % of control | [5] 103 % of control | [11] 105 % of control | [6] 95 % of control | [12] 92 % of control

O=C(Nc1cc(S(=O)(=O)F)ccc1Cl)c1ccc2ccccc2c1O
inactive: [1] 97 % of control | [10] 91 % of control | [2] 101 % of control | [11] 98 % of control | [3] 95 % of control | [12] 104 % of control
